The values below come from US8569327B2, “Phenanthroindolizidine derivative and NFκB inhibitor containing same as active ingredient” (Kabushiki Kaisha Yakult Honsha, priority 2008, dated 2013).

As usually defined, the IC50 is the concentration needed to halve the response being measured.

One test concerns SV40 promoter. The test can be described thus: SV40 promoter activity, luciferase assay in SW480/SV40-Luc cells. Particulars: for SV40 promoter inhibitory activity IC50: SW480/SV40-Luc cells, luciferase; for IC50: Homo sapiens, SW480, read-out: SV40 promoter inhibitory activity IC50. It counts as cell-based, human. From the text:
(§1) The action of the phenanthroindolizidine alkaloid compound of the present invention on the NFκB activity was studied using a luciferase assay. Human colon cancer SW480 cells were transfected with pNFκB-Luc Plasmid (Stratagene), which is a reporter vector in which a five-time tandem repeat of the NFκB responsive element (NRE) is integrated into the upstream of the luciferase gene, using Lipofectamine 2000 (Invitrogen Corporation) in accordance with the attached operating procedure. Subsequently, the cells were cultured in an RPMI1640 medium containing 10% FBS, 100 U/mL penicillin, 100 μg/mL streptomycin, and 0.5 mg/mL G418 to produce SW480 cells having the luciferase gene, the expression of which is regulated by NRE, stably introduced therein (SW480/NRE-Luc cells). Likewise, SW480 cells were transfected with pGL3-Control Vector (Promega Corporation), which is a reporter vector in which the SV40 promoter is integrated into the upstream of the luciferase gene, to produce SW480 cells having the luciferase gene, the expression of which is regulated by the SV40 promoter, stably introduced therein (SW480/SV40-Luc cells). The SW480/NRE-Luc cells or the SW480/SV40-Luc cells were suspended in an RPMI1640 medium containing 10% FBS, 100 U/mL penicillin, and 100 μg/mL streptomycin (10% FBS/RPMI1640), and then seeded in a 96-well microplate, followed by culturing under conditions of 5% CO2 and at 37° C. (5000 cells/well). After an overnight culture, the compound of the present invention was added, followed by culturing for one hour. Further, 50 ng/mL TNFα (Sigma-Aldrich Corporation) was added, followed by culturing for four hours. Subsequently, a Steady-Glo Luciferase Assay reagent (Promega Corporation) was added, and the luminescent intensity was detected by SpectraMax M5e (Molecular Devices, Inc.) to measure the intracellular luciferase activity. It is to be noted that the action of the compound of the present invention on the NFκB activity or the SV40 promoter activity was shown as IC50 values (the concentration of a test compound needed for 50% inhibition of the induction of the luciferase expression).

For test [1], the system named is human colon cancer SW480 cells. Nature of the test: Inhibitory action on the proliferation of SW480 cells. Particulars: 48 hours, TetraColor ONE; for IC50: Homo sapiens, SW480. In kind it is cell-based. As to the method:
(§2) The action of the phenanthroindolizidine alkaloid compound of the present invention on the proliferation of human colon cancer SW480 cells, HT-29 cells, and human non-small cell lung cancer A549 cells was studied. The SW480 cells were suspended in a 10% FBS/RPMI1640 and then seeded in a 96-well microplate, followed by culturing in 5% CO2 at 37° C. (2000 cells/well). The A549 cells and the HT-29 cells were each suspended in a DMEM medium containing 10% FBS, 100 U/mL penicillin, and 100 μg/mL streptomycin (10% FBS/DMEM) and a DMEM F-12 HAM medium containing 10% FBS, 100 U/mL penicillin, and 100 μg/mL streptomycin (10% FBS/DMEM F12 HAM), and then seeded in 96-well microplates, followed by culturing in 5% CO2 at 37° C. (1000 cells/well). After an overnight culture, the compound of the present invention was added, followed by further culturing for 48 hours (SW480 cells) and 96 hours (A549 cells and HT-29 cells). After culturing, the number of viable cells was counted using TetraColor ONE (Seikagaku Corporation) in accordance with the attached operating procedure. The results were expressed as the concentration of a test compound needed for 50% inhibition of the proliferation of the cells (IC50).

Another test relates to NFκB. The test can be described thus: Inhibitory action on the NFκB activity, luciferase assay in SW480/NRE-Luc cells. It counts as cell-based, human. The settings on record: for NFκB inhibitory activity IC50: SW480/NRE-Luc cells, compound 1 h then 50 ng/mL TNFα 4 h, luciferase; for IC50: Homo sapiens, SW480, read-out: NFκB inhibitory activity IC50.
Description: as §1

Test [2] relates to human colon cancer HT-29 cells. Nature of the test: Inhibitory action on the proliferation of HT-29 cells. In kind it is cell-based. Particulars: 96 hours, TetraColor ONE; for IC50: Homo sapiens, HT-29. On the procedure:
as §2

The test system of test [3] is human non-small cell lung cancer A549 cells. Nature of the test: Inhibitory action on the proliferation of A549 cells. In kind it is cell-based. Particulars: 96 hours, TetraColor ONE; for IC50: Homo sapiens, A549. As to the method: as §2

With `COc1cc2c3c(c4ccc(OC(=O)CCCCCCC(=O)Oc5ccc6c7c(c8cc(OC)c(OC)cc8c6c5)CN5CCC[C@H]5[C@H]7O)cc4c2cc1OC)[C@H](O)[C@@H]1CCCN1C3.Cl` [Compound 24, octanedionic acid(9S,12S)-13-hydroxy-6,7-dimethoxy-9,10,11,12,12a,13-hexahydro-9a-aza-cyclopenta[b]triphenylene-3-yl ester(12aS,13S)-13-hydroxy-6,7-dimethoxy-9,10,11,12,12a,13-hexahydro-9a-aza-cyclopenta[b]triphenylene-3-yl ester hydrochloride], the “SV40 promoter inhibitory activity IC50” value in the test with SV40 promoter is listed as more than 100 ng/mL. The “SW480 proliferation inhibitory action IC50” value in test [1] is on record as 0.77 ng/mL. Also, the “NFκB inhibitory activity IC50” value in the test with NFκB came out at 0.90 ng/mL. Moreover, in test [2], the “HT-29 proliferation inhibitory action IC50” value was determined as 0.24 ng/mL. Moreover, in test [3], the “A549 proliferation inhibitory action IC50” value was determined as 0.18 ng/mL.
The matching figures for `CCCC(=O)Oc1ccc2c3c(c4cc(OC)c(OC)cc4c2c1)CN1CCC[C@H]1C3.CS(=O)(=O)O` [Compound 50, butyric acid(S)-6,7-dimethoxy-9,10,11,12,12a,13-hexahydro-9a-aza-cyclopenta[b]triphenylene-3-yl ester methanesulfonate]: more than 100 ng/mL, 0.54 ng/mL, 0.34 ng/mL, 1.5 ng/mL and 0.86 ng/mL.
The corresponding values for `CCC(=O)Oc1ccc2c3c(c4cc(OC)c(OC)cc4c2c1)CN1CCC[C@H]1C3.CS(=O)(=O)O` [Compound 51, propionic acid(S)-6,7-dimethoxy-9,10,11,12,12a,13-hexahydro-9a-aza-cyclopenta[b]triphenylene-3-yl ester methanesulfonate] are more than 100 ng/mL, 1.1 ng/mL, 0.80 ng/mL, 1.6 ng/mL and 0.78 ng/mL.
The corresponding values for `COc1cc2c3c(c4ccc(OC(=O)c5cccnc5)cc4c2cc1OC)C[C@@H]1CCCN1C3.CS(=O)(=O)O` [Compound 47, nicotinic acid(S)-6,7-dimethoxy-9,10,11,12,12a,13-hexahydro-9a-aza-cyclopenta[b]triphenylene-3-yl ester methanesulfonate] are more than 1000 ng/mL, 0.38 ng/mL, 0.42 ng/mL, 1.9 ng/mL and 1.1 ng/mL.
For `COc1cc2c3c(c4ccc(N)cc4c2cc1OC)[C@H](O)[C@@H]1CCCN1C3.Cl` [Compound 25, (12aS,13S)-3-amino-6,7-dimethoxy-9,10,11,12,12a,13-hexahydro-9a-aza-cyclopenta[b]triphenylene-13-ol hydrochloride], the IC50 is more than 100 ng/mL in the test with SV40 promoter; 2.3 ng/mL in test [1]; 1.1 ng/mL in the test with NFκB; 0.28 ng/mL in test [2]; 0.4 ng/mL in test [3].
As for `COc1cc2c3c(c4ccc(OC(=O)c5ccsc5)cc4c2cc1OC)[C@H](O)[C@@H]1CCCN1C3.Cl` [Compound 23, thiophene-3-carboxylic acid(12aS,13S)-13-hydroxy-6,7-dimethoxy-9,10,11,12,12a,13-hexahydro-9a-aza-cyclopenta[b]triphenylene-3-yl ester hydrochloride], the “SV40 promoter inhibitory activity IC50” value with SV40 promoter was more than 100 ng/mL. For the same compound, the “SW480 proliferation inhibitory action IC50” value in test [1] is on record as 3.1 ng/mL. In addition, the “NFκB inhibitory activity IC50” value with NFκB is recorded as 4.1 ng/mL. In test [2], the “HT-29 proliferation inhibitory action IC50” value turned out to be 1.4 ng/mL. In addition, the “A549 proliferation inhibitory action IC50” value in test [3] is listed as 0.76 ng/mL.
On to `COc1cc2c3c(c4cccc(O)c4c2cc1OC)[C@H](O)[C@@H]1CCCN1C3.Cl` [Compound 30, (12aS,13S)-6,7-dimethoxy-9,10,11,12,12a,13-hexahydro-9a-aza-cyclopenta[b]triphenylene-4,13-diol hydrochloride], for which the IC50 in the test with SV40 promoter is more than 1000 ng/mL; in test [1], 0.45 ng/mL; in the test on NFκB, 0.017 ng/mL; in test [2], 30.5 ng/mL; in test [3], 1.2 ng/mL.
Take `COc1cc2c3c(c4ccc(OC(=O)C(C)(C)C)cc4c2cc1OC)C[C@@H]1CCCN1C3.Cl` [Compound 35, 2,2-dimethyl-propionic acid(S)-6,7-dimethoxy-9,10,11,12,12a,13-hexahydro-9a-aza-cyclopenta[b]triphenylene-3-yl ester hydrochloride]: in the test with SV40 promoter, the “SV40 promoter inhibitory activity IC50” value is more than 1000 ng/mL. Besides, the “SW480 proliferation inhibitory action IC50” value in test [1] worked out at 4.1 ng/mL. Also, the “NFκB inhibitory activity IC50” value in the test on NFκB is 2.4 ng/mL. In addition, the “HT-29 proliferation inhibitory action IC50” value in test [2] is 3.7 ng/mL. The “A549 proliferation inhibitory action IC50” value in test [3] is given as 1.2 ng/mL.
The corresponding values for `COc1cc2c3c(c4ccc(OC(=O)c5ccoc5)cc4c2cc1OC)[C@H](O)[C@@H]1CCCN1C3.Cl` [Compound 22, furan-3-carboxylic acid(12aS,13S)-13-hydroxy-6,7-dimethoxy-9,10,11,12,12a,13-hexahydro-9a-aza-cyclopenta[b]triphenylene-3-yl ester hydrochloride] are more than 1000 ng/mL, 2.8 ng/mL, 1.7 ng/mL, 1.9 ng/mL and 1.1 ng/mL.
For the compound `CCc1ccc2c3c(c4cc(OC)c(OC)cc4c2c1)CN1CCC[C@H]1[C@H]3O.Cl` [Compound 3, (12aS,13S)-3-ethyl-6,7-dimethoxy-9,10,11,12,12a,13-hexahydro-9a-aza-cyclopenta[b]triphenylene-13-ol hydrochloride], the IC50 with SV40 promoter was more than 10000 ng/mL; in test [1], 219 ng/mL; in the test with NFκB, 105 ng/mL; in test [2] it was 50.8 ng/mL; in test [3], 24.5 ng/mL.
In the case of `CCCCC(=O)Oc1ccc2c3c(c4cc(OC)c(OC)cc4c2c1)CN1CCC[C@H]1C3.CS(=O)(=O)O` [Compound 49, pentanoic acid(S)-6,7-dimethoxy-9,10,11,12,12a,13-hexahydro-9a-aza-cyclopenta[b]triphenylene-3-yl ester methanesulfonate], the “SV40 promoter inhibitory activity IC50” value with SV40 promoter is given as more than 1000 ng/mL. The “SW480 proliferation inhibitory action IC50” value in test [1] is given as 0.62 ng/mL. In addition, the “NFκB inhibitory activity IC50” value in the test on NFκB is 0.41 ng/mL. Also, the “HT-29 proliferation inhibitory action IC50” value in test [2] came to 2.0 ng/mL. The “A549 proliferation inhibitory action IC50” value in test [3] turned out to be 1.1 ng/mL.
As to `CCc1ccc2c3c(c4cc(OC)c(OC)cc4c2c1)CN1CCC[C@H]1C3.Cl` [Compound 41, (S)-3-ethyl-6,7-dimethoxy-9,10,11,12,12a,13-hexahydro-9a-aza-cyclopenta[b]triphenylene hydrochloride], the IC50 in the test on SV40 promoter is more than 10000 ng/mL; in test [1], 391 ng/mL; in the test on NFκB, 281 ng/mL; in test [2], 167 ng/mL; in test [3], 112 ng/mL.
